Key:
[1] = system: patient with a severe form of OCD; assay: Case study: treatment of a patient with a severe form of OCD; type: in vivo, human
Experimental: The GnRH-analogue triptorelin is available in a pharmaceutical preparation (Decapeptyl® Depot). In the use of this preparation, an injection is administered containing triptorelin embonate in a dose corresponding to 3.75 mg triptorelin. Injections with this dose are given intramuscularly. They should be repeated every fourth week from the first injection.
A detailed case study of the treatment of a patient with a severe form of OCD is disclosed in the following, as supporting evidence of the effect of the method.
A then person was referred to a psychiatric specialist clinic from another qualified psychiatrist for evaluation and treatment of a severe condition of OCD.
The situation when the patient came to the clinic was that they had sickness pension since more than ten years. They lived alone in a small apartment which they hardly ever left. Obsessions and compulsive rituals occupied most of their time. They repeated against their will meaningless strings of words silently during several hours every day. They felt they had to read the newspaper according to certain ritual patterns; if they did anything wrong, they had to start again from the beginning. Sometimes, it took them the whole day to read the newspaper. […] Among other things, they placed their books so that the covers were strictly oriented along north-south lines. Their contacts with other persons were highly restraint and mainly limited to some relatives.
The clinical diagnosis was that they suffered from a very serious form of OCD. They were also found to be intelligent without any signs of any other mental illness or personality disorder. Thus, it was a clearly defined case of OCD.
During long periods of time the patient had been treated with the drugs which presently are considered to have the best effect against OCD. In the treatment of the patient they had also been given supportive psychotherapy.
In order to overcome this, treatment with the long-acting GnRH-analogue triptorelin (Decapeptyl® Depot) was given every fourth week as deep intramuscular depot injections with a dose corresponding to 3.75 mg triptorelin in each injection.

[2] = system: symptoms of androgenic hyperactivity; assay: Case study: treatment against the patient's symptoms of androgenic hyperactivity; type: in vivo, human; details: one patient (male pattern baldness, sebaceous skin, acne, sexual drive)
Experimental: An endocrinological investigation was performed, based upon their symptoms of androgenic hyperactivity.

[3] = one patient, 3.75 mg i.m. depot every fourth week, after two plus another two months

| Structure (SMILES) | OCD-symptoms, initial phase of treatment ([1]; one patient, 3.75 mg deep intramuscular depot injection every fourth week, initially) | patient's condition after two months treatment ([1]; one patient, 3.75 mg i.m. depot every fourth week, after two months) | obsessive thoughts after another two months [1, 3] | patient's condition after another two months [1, 3] | clinical outcome of very severe OCD ([1]; one patient, after three months of treatment) | effect on symptoms of androgenic hyperactivity [2] | effect on OCD ([1]; one patient, given as anti-androgenic treatment) | improvement of OCD on previous treatment ([1]; same patient, treated before triptorelin) |
| --- | --- | --- | --- | --- | --- | --- | --- | --- |
| CC(C)C[C@H](NC(=O)[C@@H](Cc1c[nH]c2ccccc12)NC(=O)[C@H](Cc1ccc(O)cc1)NC(=O)[C@H](CO)NC(=O)[C@H](Cc1c[nH]c2ccccc12)NC(=O)[C@H](Cc1c[nH]cn1)NC(=O)[C@@H]1CCC(=O)N1)C(=O)N[C@@H](CCCNC(=N)N)C(=O)N1CCC[C@H]1C(=O)NCC(N)=O [triptorelin] | accentuation of the patients OCD-symptoms | began to feel better | all obsessive thoughts had disappeared | dramatically better | substantially recovered |  |  |  |
| CC(=O)O[C@]1(C(C)=O)CC[C@H]2[C@@H]3C=C(Cl)C4=CC(=O)[C@@H]5C[C@@H]5[C@]4(C)[C@H]3CC[C@@]21C [cyproterone acetate] |  |  |  |  |  | without any significant effects | without any obvious effect | without any major improvement |
